Results reported in patent publication US9637490B2, “Antifungal 5,6-dihydro-4-[(difluoroethyl)phenyl]-4H-pyrrolo[1,2-α][1,4]benzodiazepine and 4-(difluoroethyl)phenyl-6H-pyrrolo[1,2-α][1,4]benzodiazepine derivatives” (Janssen Pharmaceutica NV, priority 2010, dated 2017).

What was measured:
[1] = system: Microsporum canis (strain B68128); test: Test D.4.1: activity against M. canis in guinea-pigs after oral treatment for 7 consecutive days; format: in vivo; set-up: key to semi-quantitative lesion score (mean): lesion score 0–3.5 by severity and size of lesion; conditions: oral 10 mg/kg once daily for 7 days
Procedure: The animals used in the tests described below were female Guinea pigs (Duncan-Hartley, Charles River, 200 g). These animals were kept in groups of 2 or 3 in cages of 56×33×20 cm^3. Food pellets (Carfil Quality) and water were available ad libitum in addition to a small daily amount of hay. Standard husbandry conditions were adopted: room temperature: 22° C., humidity level: 60% and a day-night cycle of 12 h.
For the preparation of inoculums, Microsporum canis (strain B68128) was grown on Sabouraud Dextrose Agar (SDA) plates for at least one week (7-10 days) before infection (27° C.). On the day of infection, spores were harvested by adding 4-5 ml sterile water on the plate and suspending the infectious material with a bend Pasteur pipette. From the recollected fluid, 10 μl was added to a KOVA counting chamber for determination of the number of spores in 1 square (average of several squares). If needed, additional dilutions (10× or 100×) were prepared. The average number of spores in one square×dilution×90.000=cfu/ml. An inoculum of 1×10^7 cfu/ml was prepared in a honey-water mixture (50%-50%).
In the tests described below, semi-quantitative lesion scores were given based on different clinical parameters. Scores between 0 and 3.5 were assigned based on the severity and size of the lesion. The criteria are listed in detail in Table 6.
The dorsum of the guinea pigs was shaved and further depilated for 3 minutes with Veet® creme before scarification with a steel brush. An inoculum of 10^6 cfu in 150 μl (75 mQ+75 μl honey) was applied to the wound using a micropipette with disposable tips. The animal was kept immobilized until the inoculum had completely dried. […]
vehicle: methocel 0.5%, Tween 80® (polysorbate 80), demineralised water reference compound: itraconazole at 6.25 mg/ml test compounds: prepared at 25 mg/ml, subsequently further diluted
Oral treatment (gavage 0.16 ml/100 g once daily) was started about 2 hours before infection and continued once daily for 7 consecutive days. The animals were weighed after 3 days of treatment to adjust for the dose.
Developments of lesions were evaluated following the semi-quantitative lesion scoring system (see Table 6) on days 3, 5, 7, 10, 12, 14, 17 and 20. The results are show in Table 7 (“DPI” means days post infection). Reported values in Table 7 are mean values.

[2] = system: Scedosporium prolificans IHEM21157; test: Antifungal activity in vitro (resazurin susceptibility screen), Inf. I; format: cell-based; conditions: Lomentospora prolificans, 37 °C, 48 hours, resa time 17 hours
Procedure: (§1) The standard susceptibility screen was performed in 96-well plates (U-bottom, Greiner Bio-One). Serial dilutions (2-fold or 4-fold) of 20 mM compound stock solutions were made in 100% DMSO, followed by an intermediate dilution step in water. These serial dilutions (10 μl) were then spotted onto test-plates that could be stored in the dark at 4° C. for a maximum period of 2 weeks. An adequate broad dose-range was included with 64 μM as the highest in-test concentration. The culture medium RPMI-1640 was supplemented with L-glutamine, 2% glucose and buffered with 3-(N-morpholino)-propanesulfonic acid (MOPS) at pH 7.0±0.1. The different fungal species/isolates (Table 3a) were cryopreserved and 1/1000 diluted in medium just prior to use. A standard inoculum of 200 μl containing 10^3 colony-forming unit (cfu) was then added to each well. A positive control (100% growth=fungal culture without antifungal) and a negative control (0% growth=RPMI-MOPS medium) were included on each plate. Optimal incubation time and temperature were dependent on the fungal species and vary from 24 h for yeasts (37° C.) to one week or more for dermatophytes (27° C.). Inhibition of fungal growth was measured after adding 10 μl of 0.005% (w/v) resazurin (Sigma Aldrich) to each well, based on the principle that living cells convert the non-fluorescent blue resazurin into the pink and fluorescent resorufin, allowing fluorimetric reading (λhd ex 550 nm and μem 590 nm) after an additional incubation period (‘resa’ time mentioned in Table 3a). [table]

[3] = system: Rhizopus oryzae IHEM5223; test: Antifungal activity in vitro (resazurin susceptibility screen), Inf. J; format: cell-based; conditions: 37 °C, 24 hours, resa time 6 hours
Procedure: as §1

[4] = system: Trichophyton mentagrophytes B70554; test: Antifungal activity in vitro (resazurin susceptibility screen), Inf. G; format: cell-based; conditions: 27 °C, 7 days, resa time 24 hours; for pIC50 Inf. G: Trichophyton mentagrophytes B70554; for IC50: Trichophyton mentagrophytes, B70554, Trichophyton mentagrophytes B70554
Procedure: as §1

[5] = system: Microsporum canis B68128; test: Antifungal activity in vitro (resazurin susceptibility screen), Inf. B; format: cell-based; conditions: 27 °C, 9 days, resa time 24 hours; for pIC50 Inf. B: Microsporum canis B68128; for IC50: Microsporum canis, B68128, Microsporum canis B68128
Procedure: as §1

[6] = system: Cryptococcus neoformans B66663; test: Antifungal activity in vitro (resazurin susceptibility screen), Inf. F; format: cell-based; conditions: 37 °C, 24 hours, resa time 4 hours; for pIC50 Inf. F: Cryptococcus neoformans B66663; for IC50: Cryptococcus neoformans, B66663, Cryptococcus neoformans B66663
Procedure: as §1

[7] = system: Candida parapsilosis B66126; test: Antifungal activity in vitro (resazurin susceptibility screen), Inf. D; format: cell-based; conditions: 37 °C, 24 hours, resa time 4 hours; for pIC50 Inf. D: Candida parapsilosis B66126; for IC50: Lodderomyces parapsilosis, B66126, Candida parapsilosis B66126
Procedure: as §1

[8] = system: Rhizomucor miehei IHEM13391; test: Antifungal activity in vitro (resazurin susceptibility screen), Inf. K; format: cell-based; conditions: Rhizomucor miehei IHEM13391; 37 °C, 48 hours, resa time 17 hours
Procedure: as §1

[9] = system: Mucor circinelloides IHEM21105; test: Antifungal activity in vitro (resazurin susceptibility screen), Inf. L; format: cell-based; conditions: 27 °C, 48 hours, resa time 17 hours
Procedure: as §1

[10] = system: Sporothrix schenkii B62482; test: Antifungal activity in vitro (resazurin susceptibility screen), Inf. A; format: cell-based; conditions: 27 °C, 4 days, resa time 24 hours; for pIC50 Inf. A: Sporothrix schenkii B62482; for IC50: Sporothrix, B62482, Sporothrix schenkii B62482
Procedure: as §1

[11] = system: Aspergillus fumigatus B42928; test: Antifungal activity in vitro (resazurin susceptibility screen), Inf. E; format: cell-based; conditions: 27 °C, 48 hours, resa time 17 hours; for pIC50 Inf. E: Aspergillus fumigatus B42928; for IC50: Aspergillus fumigatus, B42928, Aspergillus fumigatus B42928
Procedure: as §1

[12] = system: Trichophyton rubrum B68183; test: Antifungal activity in vitro (resazurin susceptibility screen), Inf. C; format: cell-based; conditions: 27 °C, 7 days, resa time 24 hours; for pIC50 Inf. C: Trichophyton rubrum B68183; for IC50: Trichophyton rubrum, B68183, Trichophyton rubrum B68183
Procedure: as §1

[13] = system: Scedosporium apiospermum IHEM3817; test: Antifungal activity in vitro (resazurin susceptibility screen), Inf. H; format: cell-based; conditions: Scedosporium apiospermum IHEM3817; 37 °C, 48 hours, resa time 17 hours
Procedure: as §1

Structure (SMILES) | pIC50 Inf. G [4] | pIC50 Inf. B [5] | pIC50 Inf. F [6] | pIC50 Inf. D [7] | pIC50 Inf. A [10] | pIC50 Inf. E [11] | pIC50 Inf. C [12] | IC50 [4] [µM] | IC50 [5] [µM] | IC50 [6] [µM] | IC50 [7] [µM] | IC50 [10] [µM] | IC50 [11] [µM] | IC50 [12] [µM] | also measured
CCC(C)n1ncn(-c2ccc(N3CCN(c4ccc(OCC5COC(Cn6cncn6)(c6ccc(Cl)cc6Cl)O5)cc4)CC3)cc2)c1=O (stereo not shown) [Itraconazole, reference compound] | – | – | – | – | – | – | – | – | – | – | – | – | – | – | semi-quantitative lesion score (mean) ([1]; 3 DPI): 0; semi-quantitative lesion score (mean) ([1]; 5 DPI): 0; semi-quantitative lesion score (mean) ([1]; 7 DPI): 0; semi-quantitative lesion score (mean) ([1]; 10 DPI): 0; semi-quantitative lesion score (mean) ([1]; 12 DPI): 0; semi-quantitative lesion score (mean) ([1]; 14 DPI): 0; semi-quantitative lesion score (mean) ([1]; 17 DPI): 0; semi-quantitative lesion score (mean) ([1]; 20 DPI): 0
CC(F)(F)c1ccc([C@H]2NCc3c(Cl)cccc3-n3cccc32)cc1 (single isomer, unassigned) [Compound 3] | – | – | – | – | – | – | – | – | – | – | – | – | – | – | IC50 [2]: 0.708 µM; IC50 ([3]; Rhizopus arrhizus): > 64.6 µM
CC(F)(F)c1ccc(C2NCc3c(Cl)cccc3-n3cccc32)cc1.Cl (stereo not shown) [Compound 1, 7-chloro-4-[4-(1,1-difluoroethyl)phenyl]-5,6-dihydro-4H-pyrrolo[1,2-a][1,4]-benzodiazepine.HCl] | 6.89 | 6.45 | 5.30 | 5.70 | 4.68 | 6.72 | 6.91 | – | – | – | – | – | – | – | pIC50 Inf. K [8]: <4.19; IC50 [9]: > 64.6 µM; pIC50 Inf. J [3]: <4.19; pIC50 Inf. H [13]: <4.19
CC(F)(F)c1cc(C2=NCc3ccc(Cl)cc3-n3cccc32)ccc1F [Compound 34, 9-chloro-4-[3-(1,1-difluoroethyl)-4-fluorophenyl]-6H-pyrrolo[1,2-a][1,4]benzodiazepine] | – | – | – | – | – | – | – | 8.13 | 8.13 | 5.75 | 2.95 | 7.94 | 7.94 | 7.94 | –
CC(F)(F)c1ccc(C2NCc3c(Cl)cc(Cl)cc3-n3cccc32)cc1.Cl (stereo not shown) [Compound 13, 7,9-dichloro-4-[4-(1,1-difluoroethyl)phenyl]-5,6-dihydro-4H-pyrrolo[1,2-a][1,4]-benzodiazepine.HCl] | 5.14 | 4.23 | <4.19 | <4.19 | <4.19 | 4.81 | 5.70 | – | – | – | – | – | – | – | –
CC(F)(F)c1ccc(C2NCc3c(ccc(Cl)c3Cl)-n3cccc32)cc1.Cl (stereo not shown) [Compound 7, 7,8-dichloro-4-[4-(1,1-difluoroethyl)phenyl]-5,6-dihydro-4H-pyrrolo[1,2-a][1,4]-benzodiazepine.HCl] | <4.19 | 5.40 | <4.19 | <4.19 | <4.19 | <4.19 | 5.40 | – | – | – | – | – | – | – | –
CC(F)(F)c1ccc(C2=NCc3c(ccc(Cl)c3Cl)-n3cccc32)cc1 [Compound 10, 7,8-dichloro-4-[4-(1,1-difluoroethyl)phenyl]-6H-pyrrolo[1,2-a][1,4]benzodiazepine] | – | – | – | – | – | – | – | > 64.6 | > 64.6 | > 64.6 | > 64.6 | > 64.6 | > 64.6 | > 64.6 | –
CC(F)(F)c1ccc(C2NCc3c(Cl)ccc(Cl)c3-n3cccc32)cc1.Cl (stereo not shown) [Compound 11, 7,10-dichloro-4-[4-(1,1-difluoroethyl)phenyl]-5,6-dihydro-4H-pyrrolo[1,2-a][1,4]-benzodiazepine.HCl] | <4.19 | <4.19 | <4.19 | <4.19 | <4.19 | <4.19 | 4.86 | – | – | – | – | – | – | – | –
CC(F)(F)c1cc(C2=NCc3cccc(Cl)c3-n3cccc32)ccc1F [Compound 35, 10-chloro-4-[3-(1,1-difluoroethyl)-4-fluorophenyl]-6H-pyrrolo[1,2-a][1,4]-benzodiazepine] | – | – | – | – | – | – | – | 1.58 | 0.525 | 0.525 | 14.8 | 4.27 | 1.45 | 0.302 | –
CC(F)(F)c1ccc(C2NCc3cc(Cl)cc(Cl)c3-n3cccc32)cc1.Cl (stereo not shown) [Compound 5, 8,10-dichloro-4-[4-(1,1-difluoroethyl)phenyl]-5,6-dihydro-4H-pyrrolo[1,2-a][1,4]-benzodiazepine.HCl] | <4.19 | <4.19 | 4.46 | <4.19 | <4.19 | <4.19 | 4.22 | – | – | – | – | – | – | – | –
